In the kinase profiling compilation of Christmann-Franck et al. (2016):

Assays:
Experiment in all cases: KINOMEscan competition binding
Conditions in all cases: compound 10.0 µM
MINK1 (human) = MINK1 (human) (UniProt Q8N4C8)
CDK3 (human) = CDK3 (human) (UniProt Q00526)
BMPR2 (human) = BMPR2 (human) (UniProt Q13873)
EPHA6 (human) = EPHA6 (human) (UniProt Q9UF33)
ABL2 (human) = ABL2 (human) (UniProt P42684)
MELK (human) = MELK (human) (UniProt Q14680)
CDK7 (human) = CDK7 (human) (UniProt P50613)
PRKD3 (human) = PRKD3 (human) (UniProt O94806)
Sequence of PRKD3 (human) (O94806 whole entry, looked up): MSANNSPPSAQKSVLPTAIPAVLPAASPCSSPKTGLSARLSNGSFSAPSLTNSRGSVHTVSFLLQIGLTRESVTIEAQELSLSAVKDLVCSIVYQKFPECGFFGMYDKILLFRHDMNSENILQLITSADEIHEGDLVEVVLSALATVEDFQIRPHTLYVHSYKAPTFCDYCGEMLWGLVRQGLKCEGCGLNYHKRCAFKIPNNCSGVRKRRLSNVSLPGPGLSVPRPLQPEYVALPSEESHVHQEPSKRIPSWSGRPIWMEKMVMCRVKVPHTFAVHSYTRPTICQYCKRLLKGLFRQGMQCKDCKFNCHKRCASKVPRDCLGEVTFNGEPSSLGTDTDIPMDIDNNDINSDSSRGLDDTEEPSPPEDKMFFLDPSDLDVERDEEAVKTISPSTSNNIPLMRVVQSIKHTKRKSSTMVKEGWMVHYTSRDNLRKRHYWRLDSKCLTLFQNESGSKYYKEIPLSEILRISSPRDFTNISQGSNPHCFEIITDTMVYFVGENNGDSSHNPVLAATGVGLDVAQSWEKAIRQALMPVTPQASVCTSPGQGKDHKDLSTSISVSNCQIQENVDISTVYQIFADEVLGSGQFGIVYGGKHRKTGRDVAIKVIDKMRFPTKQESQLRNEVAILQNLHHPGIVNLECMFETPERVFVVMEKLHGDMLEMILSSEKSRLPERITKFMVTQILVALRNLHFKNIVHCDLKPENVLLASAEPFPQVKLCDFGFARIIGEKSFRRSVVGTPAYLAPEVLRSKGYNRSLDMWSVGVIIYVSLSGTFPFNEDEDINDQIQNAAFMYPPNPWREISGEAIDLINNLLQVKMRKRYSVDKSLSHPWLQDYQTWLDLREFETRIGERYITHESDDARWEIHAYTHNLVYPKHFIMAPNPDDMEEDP

PIP5K1A (human) = PIP5K1A (human) (UniProt Q99755)
ROS1 (human) = ROS1 (human) (UniProt P08922)
PIP4K2B (human) = PIP4K2B (human) (UniProt P78356)
Sequence of PIP4K2B (human) (P78356 whole entry, looked up): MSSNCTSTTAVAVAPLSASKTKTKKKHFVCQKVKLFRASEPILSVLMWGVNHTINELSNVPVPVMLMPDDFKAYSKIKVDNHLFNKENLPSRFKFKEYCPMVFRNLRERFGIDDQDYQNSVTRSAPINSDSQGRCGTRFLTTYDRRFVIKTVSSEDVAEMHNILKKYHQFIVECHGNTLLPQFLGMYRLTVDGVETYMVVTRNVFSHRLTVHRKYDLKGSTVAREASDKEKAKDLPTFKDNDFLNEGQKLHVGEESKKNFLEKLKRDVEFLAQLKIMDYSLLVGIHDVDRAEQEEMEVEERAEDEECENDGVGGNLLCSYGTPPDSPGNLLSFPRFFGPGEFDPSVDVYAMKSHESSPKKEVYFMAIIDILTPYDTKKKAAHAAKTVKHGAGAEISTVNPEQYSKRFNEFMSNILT

WEE1 (human) = WEE1 (human) (UniProt P30291)
EPHB4 (human) = EPHB4 (human) (UniProt P54760)
FLT1 (human) = FLT1 (human) (UniProt P17948)
ULK3 (human) = ULK3 (human) (UniProt Q6PHR2)
TNK2 (human) = TNK2 (human) (UniProt Q07912)
Sequence of TNK2 (human) (Q07912 whole entry, looked up): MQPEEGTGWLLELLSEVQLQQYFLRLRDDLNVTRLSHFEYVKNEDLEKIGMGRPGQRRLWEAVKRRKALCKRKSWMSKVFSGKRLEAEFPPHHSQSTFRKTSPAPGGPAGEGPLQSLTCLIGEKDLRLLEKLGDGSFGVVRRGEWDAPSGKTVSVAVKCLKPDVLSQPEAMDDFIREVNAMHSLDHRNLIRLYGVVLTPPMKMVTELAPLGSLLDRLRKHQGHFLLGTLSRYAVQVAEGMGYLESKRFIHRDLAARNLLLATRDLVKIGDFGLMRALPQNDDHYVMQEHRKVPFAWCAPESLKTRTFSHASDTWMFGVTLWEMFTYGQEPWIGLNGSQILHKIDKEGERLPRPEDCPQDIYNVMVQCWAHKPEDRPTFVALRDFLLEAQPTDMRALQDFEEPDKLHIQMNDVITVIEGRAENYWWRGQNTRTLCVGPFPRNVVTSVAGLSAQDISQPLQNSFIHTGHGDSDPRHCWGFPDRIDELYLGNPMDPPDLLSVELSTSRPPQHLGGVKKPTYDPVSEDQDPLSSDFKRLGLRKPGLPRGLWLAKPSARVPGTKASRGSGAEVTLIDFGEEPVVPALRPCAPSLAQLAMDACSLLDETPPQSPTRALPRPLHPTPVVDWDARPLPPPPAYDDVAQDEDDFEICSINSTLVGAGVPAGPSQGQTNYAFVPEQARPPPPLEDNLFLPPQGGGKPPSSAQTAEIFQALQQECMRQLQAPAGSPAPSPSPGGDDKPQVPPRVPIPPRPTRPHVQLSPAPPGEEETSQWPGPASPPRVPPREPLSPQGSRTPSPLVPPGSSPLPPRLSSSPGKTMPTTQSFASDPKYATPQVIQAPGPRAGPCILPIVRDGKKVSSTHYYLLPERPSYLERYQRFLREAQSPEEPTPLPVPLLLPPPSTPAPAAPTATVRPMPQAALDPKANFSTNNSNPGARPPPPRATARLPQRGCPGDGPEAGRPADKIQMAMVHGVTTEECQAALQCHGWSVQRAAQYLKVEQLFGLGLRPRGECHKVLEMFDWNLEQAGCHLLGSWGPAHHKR

PTK2 (human) = PTK2 (human) (UniProt Q05397)
CSNK1G2 (human) = CSNK1G2 (human) (UniProt P78368)
MAP3K5 (human) = MAP3K5 (human) (UniProt Q99683)
CSNK2A1 (human) = CSNK2A1 (human) (UniProt P68400)
CSNK2A2 (human) = CSNK2A2 (human) (UniProt P19784)
PAK6 (human) = PAK6 (human) (UniProt Q9NQU5)
FER (human) = FER (human) (UniProt P16591)
RIOK3 (human) = RIOK3 (human) (UniProt O14730)
Sequence of RIOK3 (human) (O14730 whole entry, looked up): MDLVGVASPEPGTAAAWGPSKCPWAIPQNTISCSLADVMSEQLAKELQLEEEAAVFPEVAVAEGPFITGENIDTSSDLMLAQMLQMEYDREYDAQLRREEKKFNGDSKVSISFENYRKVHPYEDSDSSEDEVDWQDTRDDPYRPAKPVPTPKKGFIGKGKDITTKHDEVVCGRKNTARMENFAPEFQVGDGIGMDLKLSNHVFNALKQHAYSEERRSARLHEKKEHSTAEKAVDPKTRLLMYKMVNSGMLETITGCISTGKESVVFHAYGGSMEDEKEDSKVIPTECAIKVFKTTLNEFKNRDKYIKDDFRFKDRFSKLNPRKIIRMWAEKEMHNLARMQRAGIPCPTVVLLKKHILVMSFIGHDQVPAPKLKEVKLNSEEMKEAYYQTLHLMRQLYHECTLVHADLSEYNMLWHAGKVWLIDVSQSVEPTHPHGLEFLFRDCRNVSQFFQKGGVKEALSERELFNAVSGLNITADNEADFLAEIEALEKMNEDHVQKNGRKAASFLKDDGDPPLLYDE

ULK1 (human) = ULK1 (human) (UniProt O75385)
NUAK1 (human) = NUAK1 (human) (UniProt O60285)
Sequence of NUAK1 (human) (O60285 whole entry, looked up): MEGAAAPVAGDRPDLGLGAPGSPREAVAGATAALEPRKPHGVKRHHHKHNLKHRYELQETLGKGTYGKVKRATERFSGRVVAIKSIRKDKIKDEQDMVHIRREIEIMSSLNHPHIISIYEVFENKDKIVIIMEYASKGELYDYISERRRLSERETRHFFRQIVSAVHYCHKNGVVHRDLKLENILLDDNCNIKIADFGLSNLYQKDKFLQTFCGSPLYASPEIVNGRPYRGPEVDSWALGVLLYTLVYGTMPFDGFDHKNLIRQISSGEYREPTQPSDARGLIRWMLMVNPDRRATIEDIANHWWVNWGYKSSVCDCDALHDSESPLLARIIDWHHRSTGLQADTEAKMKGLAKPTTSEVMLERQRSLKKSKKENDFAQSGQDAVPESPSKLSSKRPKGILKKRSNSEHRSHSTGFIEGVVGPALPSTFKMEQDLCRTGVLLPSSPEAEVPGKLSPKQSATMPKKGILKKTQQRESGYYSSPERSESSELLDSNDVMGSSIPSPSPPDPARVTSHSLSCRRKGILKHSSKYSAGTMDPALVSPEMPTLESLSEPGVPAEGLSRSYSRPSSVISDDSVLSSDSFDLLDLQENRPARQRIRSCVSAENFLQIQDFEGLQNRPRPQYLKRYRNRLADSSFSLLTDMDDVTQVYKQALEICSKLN

PRKAA1 (human) = PRKAA1 (human) (UniProt Q13131)
MAP2K1 (human) = MAP2K1 (human) (UniProt Q02750)
STK38L (human) = STK38L (human) (UniProt Q9Y2H1)
Sequence of STK38L (human) (Q9Y2H1 whole entry, looked up): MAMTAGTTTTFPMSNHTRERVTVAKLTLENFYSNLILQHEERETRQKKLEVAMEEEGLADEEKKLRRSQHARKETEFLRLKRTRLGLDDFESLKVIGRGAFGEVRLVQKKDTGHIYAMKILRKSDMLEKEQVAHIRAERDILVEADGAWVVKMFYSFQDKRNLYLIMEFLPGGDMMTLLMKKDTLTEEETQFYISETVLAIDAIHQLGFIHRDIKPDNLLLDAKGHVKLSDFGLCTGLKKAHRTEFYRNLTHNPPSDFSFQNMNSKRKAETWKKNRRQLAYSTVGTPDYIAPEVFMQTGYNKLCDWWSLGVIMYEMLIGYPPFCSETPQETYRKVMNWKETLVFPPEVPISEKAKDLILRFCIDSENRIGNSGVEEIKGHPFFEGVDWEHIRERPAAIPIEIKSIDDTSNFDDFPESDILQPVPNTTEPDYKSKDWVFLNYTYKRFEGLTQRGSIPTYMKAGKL

RPS6KA3 KD1 (human) = RPS6KA3 KD1 (human) (UniProt P51812)
TGFBR1 (human) = TGFBR1 (human) (UniProt P36897)
STK36 (human) = STK36 (human) (UniProt Q9NRP7)
CSK (human) = CSK (human) (UniProt P41240)
ERBB4 (human) = ERBB4 (human) (UniProt Q15303)
AURKB (human) = AURKB (human) (UniProt Q96GD4)
RPS6KA4 KD2 (human) = RPS6KA4 KD2 (human) (UniProt O75676)
DCLK2 (human) = DCLK2 (human) (UniProt Q8N568)
STK24 (human) = STK24 (human) (UniProt Q9Y6E0)
MAP3K10 (human) = MAP3K10 (human) (UniProt Q02779)
ZAP70 (human) = ZAP70 (human) (UniProt P43403)

Sequence of MELK (human) (Q14680 whole entry, looked up): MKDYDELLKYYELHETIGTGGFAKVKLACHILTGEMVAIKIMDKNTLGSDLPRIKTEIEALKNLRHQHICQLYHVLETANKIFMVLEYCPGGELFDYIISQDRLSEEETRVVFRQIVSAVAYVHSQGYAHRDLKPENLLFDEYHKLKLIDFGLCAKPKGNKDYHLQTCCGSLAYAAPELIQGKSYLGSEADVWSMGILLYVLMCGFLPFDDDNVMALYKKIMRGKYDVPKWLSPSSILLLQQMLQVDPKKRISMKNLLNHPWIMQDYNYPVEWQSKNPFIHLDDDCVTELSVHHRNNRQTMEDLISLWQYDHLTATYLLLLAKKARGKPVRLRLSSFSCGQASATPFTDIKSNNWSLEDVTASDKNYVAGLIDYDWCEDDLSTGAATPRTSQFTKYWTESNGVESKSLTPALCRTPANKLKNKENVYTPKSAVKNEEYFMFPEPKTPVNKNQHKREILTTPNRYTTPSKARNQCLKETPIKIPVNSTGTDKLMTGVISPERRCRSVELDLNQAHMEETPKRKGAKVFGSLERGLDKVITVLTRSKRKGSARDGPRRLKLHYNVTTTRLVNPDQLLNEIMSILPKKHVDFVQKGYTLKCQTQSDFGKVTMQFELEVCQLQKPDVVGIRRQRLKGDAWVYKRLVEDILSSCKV
Sequence of CDK3 (human) (Q00526 whole entry, looked up): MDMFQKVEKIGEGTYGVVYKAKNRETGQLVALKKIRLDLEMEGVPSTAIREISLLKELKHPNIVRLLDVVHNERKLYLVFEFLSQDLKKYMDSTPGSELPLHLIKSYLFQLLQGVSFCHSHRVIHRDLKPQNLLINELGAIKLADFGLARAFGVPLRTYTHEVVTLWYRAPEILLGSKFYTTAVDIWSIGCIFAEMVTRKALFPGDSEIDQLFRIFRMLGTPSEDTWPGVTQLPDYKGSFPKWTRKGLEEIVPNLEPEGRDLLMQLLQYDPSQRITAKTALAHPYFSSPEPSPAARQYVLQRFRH

| kinase still bound, per cent of control (MINK1 (human)) [%] | kinase still bound, per cent of control (CDK3 (human)) [%] | kinase still bound, per cent of control (BMPR2 (human)) [%] | kinase still bound, per cent of control (EPHA6 (human)) [%] | kinase still bound, per cent of control (ABL2 (human)) [%] | kinase still bound, per cent of control (MELK (human)) [%] | kinase still bound, per cent of control (CDK7 (human)) [%] | kinase still bound, per cent of control (PRKD3 (human)) [%] | kinase still bound, per cent of control (PIP5K1A (human)) [%] | kinase still bound, per cent of control (ROS1 (human)) [%] | kinase still bound, per cent of control (PIP4K2B (human)) [%] | kinase still bound, per cent of control (WEE1 (human)) [%] | kinase still bound, per cent of control (EPHB4 (human)) [%] | kinase still bound, per cent of control (FLT1 (human)) [%] | kinase still bound, per cent of control (ULK3 (human)) [%] | kinase still bound, per cent of control (TNK2 (human)) [%] | kinase still bound, per cent of control (PTK2 (human)) [%] | kinase still bound, per cent of control (CSNK1G2 (human)) [%] | kinase still bound, per cent of control (MAP3K5 (human)) [%] | kinase still bound, per cent of control (CSNK2A1 (human)) [%] | Structure (SMILES) | further results |
| --- | --- | --- | --- | --- | --- | --- | --- | --- | --- | --- | --- | --- | --- | --- | --- | --- | --- | --- | --- | --- | --- |
| 100 | 100 | 100 | 100 | 100 | 100 | 100 | 100 | 100 | 100 | 100 | 100 | 100 | 100 | 100 | 100 | 100 | 100 | 100 | 100 | OCCCNc1cc(-c2ccnc(Nc3cccc(Cl)c3)n2)ccn1 | kinase still bound, per cent of control (CSNK2A2 (human)): 100%; kinase still bound, per cent of control (PAK6 (human)): 100%; kinase still bound, per cent of control (FER (human)): 100%; kinase still bound, per cent of control (RIOK3 (human)): 100%; kinase still bound, per cent of control (ULK1 (human)): 100%; kinase still bound, per cent of control (NUAK1 (human)): 100%; kinase still bound, per cent of control (PRKAA1 (human)): 100%; kinase still bound, per cent of control (MAP2K1 (human)): 100%; kinase still bound, per cent of control (STK38L (human)): 100%; kinase still bound, per cent of control (RPS6KA3 KD1 (human)): 100%; kinase still bound, per cent of control (TGFBR1 (human)): 100%; kinase still bound, per cent of control (STK36 (human)): 100%; kinase still bound, per cent of control (CSK (human)): 100%; kinase still bound, per cent of control (ERBB4 (human)): 100%; kinase still bound, per cent of control (AURKB (human)): 100%; kinase still bound, per cent of control (RPS6KA4 KD2 (human)): 100%; kinase still bound, per cent of control (DCLK2 (human)): 100%; kinase still bound, per cent of control (STK24 (human)): 100%; kinase still bound, per cent of control (MAP3K10 (human)): 100%; kinase still bound, per cent of control (ZAP70 (human)): 100% |
| 100 | 100 | 8.6 | 100 | 100 | 14 | 35 | 10 | 11 | 5 | 100 | 100 | 100 | 100 | 12 | 18 | 0.1 | 100 | 100 | 100 | C=CC(=O)Nc1cccc(Oc2nc(Nc3ccc(N4CCN(C)CC4)cc3OC)ncc2Cl)c1 | kinase still bound, per cent of control (CSNK2A2 (human)): 100%; kinase still bound, per cent of control (PAK6 (human)): 100%; kinase still bound, per cent of control (FER (human)): 11%; kinase still bound, per cent of control (RIOK3 (human)): 20%; kinase still bound, per cent of control (ULK1 (human)): 1.6%; kinase still bound, per cent of control (NUAK1 (human)): 0.65%; kinase still bound, per cent of control (PRKAA1 (human)): 28%; kinase still bound, per cent of control (MAP2K1 (human)): 100%; kinase still bound, per cent of control (STK38L (human)): 100%; kinase still bound, per cent of control (RPS6KA3 KD1 (human)): 100%; kinase still bound, per cent of control (TGFBR1 (human)): 100%; kinase still bound, per cent of control (STK36 (human)): 100%; kinase still bound, per cent of control (CSK (human)): 100%; kinase still bound, per cent of control (ERBB4 (human)): 0.25%; kinase still bound, per cent of control (AURKB (human)): 20%; kinase still bound, per cent of control (RPS6KA4 KD2 (human)): 16%; kinase still bound, per cent of control (DCLK2 (human)): 0.45%; kinase still bound, per cent of control (STK24 (human)): 100%; kinase still bound, per cent of control (MAP3K10 (human)): 100%; kinase still bound, per cent of control (ZAP70 (human)): 100% |

| Structure (SMILES) | kinase still bound, per cent of control (MINK1 (human)) [%] | kinase still bound, per cent of control (CDK3 (human)) [%] | kinase still bound, per cent of control (BMPR2 (human)) [%] | kinase still bound, per cent of control (EPHA6 (human)) [%] | kinase still bound, per cent of control (ABL2 (human)) [%] | kinase still bound, per cent of control (MELK (human)) [%] | kinase still bound, per cent of control (CDK7 (human)) [%] | kinase still bound, per cent of control (PRKD3 (human)) [%] | kinase still bound, per cent of control (PIP5K1A (human)) [%] | kinase still bound, per cent of control (ROS1 (human)) [%] | kinase still bound, per cent of control (PIP4K2B (human)) [%] | kinase still bound, per cent of control (WEE1 (human)) [%] | kinase still bound, per cent of control (EPHB4 (human)) [%] | kinase still bound, per cent of control (FLT1 (human)) [%] | kinase still bound, per cent of control (ULK3 (human)) [%] | kinase still bound, per cent of control (TNK2 (human)) [%] | kinase still bound, per cent of control (PTK2 (human)) [%] | kinase still bound, per cent of control (CSNK1G2 (human)) [%] | kinase still bound, per cent of control (MAP3K5 (human)) [%] | kinase still bound, per cent of control (CSNK2A1 (human)) [%] | further results |
| --- | --- | --- | --- | --- | --- | --- | --- | --- | --- | --- | --- | --- | --- | --- | --- | --- | --- | --- | --- | --- | --- |
| N#Cc1c(NC(=O)c2cccc3ccccc23)sc2c1CCCC2 | 95 | 97 | 100 | 94 | 86 | 85 | 82 | 84 | 100 | 90 | 100 | 64 | 100 | 87 | 94 | 77 | 91 | 57 | 94 | 89 | kinase still bound, per cent of control (CSNK2A2 (human)): 94%; kinase still bound, per cent of control (PAK6 (human)): 88%; kinase still bound, per cent of control (FER (human)): 92%; kinase still bound, per cent of control (RIOK3 (human)): 100%; kinase still bound, per cent of control (ULK1 (human)): 100%; kinase still bound, per cent of control (NUAK1 (human)): 77%; kinase still bound, per cent of control (PRKAA1 (human)): 80%; kinase still bound, per cent of control (MAP2K1 (human)): 98%; kinase still bound, per cent of control (STK38L (human)): 98%; kinase still bound, per cent of control (RPS6KA3 KD1 (human)): 100%; kinase still bound, per cent of control (TGFBR1 (human)): 100%; kinase still bound, per cent of control (STK36 (human)): 66%; kinase still bound, per cent of control (CSK (human)): 95%; kinase still bound, per cent of control (ERBB4 (human)): 100%; kinase still bound, per cent of control (AURKB (human)): 94%; kinase still bound, per cent of control (RPS6KA4 KD2 (human)): 100%; kinase still bound, per cent of control (DCLK2 (human)): 100%; kinase still bound, per cent of control (STK24 (human)): 80%; kinase still bound, per cent of control (MAP3K10 (human)): 100%; kinase still bound, per cent of control (ZAP70 (human)): 87% |
